# ChEMBL document CHEMBL4665709, “Rational Avoidance of Protease Cleavage Sites and Symmetrical End-Tagging Significantly Enhances the Stability and Therapeutic Potential of Antimicrobial Peptides” (J Med Chem, 2020)
# Where a SMILES comes first, the peptide text is derived from it.
# What was measured:
# [1] = Therapeutic index, ratio of MHC for human RBC to geometric mean of peptide MIC for Streptococcus agalactiae H92; assay type: toxicity; settings: human red blood cells (RBC), read-out: TI
# [2] = Therapeutic index, ratio of MHC for human RBC to geometric mean of peptide MIC for Staphylococcus epidermidis ATCC 12228; assay type: toxicity; settings: human red blood cells (RBC), read-out: TI
# [3] = Therapeutic index, ratio of MHC for human RBC to geometric mean of peptide MIC for methicillin-resistant Staphylococcus aureus 43300; assay type: toxicity; settings: human red blood cells (RBC), read-out: TI
# [4] = Therapeutic index, ratio of MHC for human RBC to geometric mean of peptide MIC for Enterococcus faecalis ATCC 29212; assay type: toxicity; settings: human red blood cells (RBC), read-out: TI
# [5] = Therapeutic index, ratio of MHC for human RBC to geometric mean of peptide MIC for Staphylococcus aureus ATCC 29213; assay type: toxicity; settings: human red blood cells (RBC), read-out: TI
# [6] = Therapeutic index, ratio of MHC for human RBC to geometric mean of peptide MIC for Staphylococcus aureus 11011; assay type: toxicity; settings: human red blood cells (RBC), read-out: TI
# [7] = Therapeutic index, ratio of MHC for human RBC to geometric mean of peptide MIC for Salmonella pullorum 7913; assay type: toxicity; settings: human red blood cells (RBC), read-out: TI
# [8] = Therapeutic index, ratio of MHC for human RBC to geometric mean of peptide MIC for Salmonella typhimurium 7731; assay type: toxicity; settings: human red blood cells (RBC), read-out: TI
# [9] = Therapeutic index, ratio of MHC for human RBC to geometric mean of peptide MIC for Salmonella choleraesuis 503; assay type: toxicity; settings: human red blood cells (RBC), read-out: TI
# [10] = Therapeutic index, ratio of MHC for human RBC to geometric mean of peptide MIC for Escherichia coli UB1005; assay type: toxicity; settings: human red blood cells (RBC), read-out: TI
# [11] = Therapeutic index, ratio of MHC for human RBC to geometric mean of peptide MIC for Salmonella typhimurium 14028; assay type: toxicity; settings: human red blood cells (RBC), read-out: TI
# [12] = Therapeutic index, ratio of MHC for human RBC to geometric mean of peptide MIC for Escherichia coli ATCC 25922; assay type: toxicity; settings: human red blood cells (RBC), read-out: TI
# Staphylococcus aureus [13] = assay: Antibacterial activity against Staphylococcus aureus ATCC 29213 after 18 to 24 hrs by CLSI-based broth microdilution method; assay type: functional; settings: time hrs 18-24
# Staphylococcus aureus [14] = assay: Antibacterial activity against Staphylococcus aureus 11011 after 18 to 24 hrs by CLSI-based broth microdilution method; assay type: functional; settings: time hrs 18-24
# Escherichia coli [15] = assay: Antibacterial activity against Escherichia coli ATCC 25922 after 18 to 24 hrs by CLSI-based broth microdilution method; assay type: functional; settings: time hrs 18-24
# Escherichia coli [16] = assay: Antibacterial activity against Escherichia coli UB1005 after 18 to 24 hrs by CLSI-based broth microdilution method; assay type: functional; settings: time hrs 18-24
# Salmonella typhimurium [17] = assay: Antibacterial activity against Salmonella typhimurium 14028 after 18 to 24 hrs by CLSI-based broth microdilution method; assay type: functional, Salmonella enterica subsp. enterica serovar Typhimurium; settings: Salmonella enterica, time hrs 18-24
# Salmonella typhimurium [18] = assay: Antibacterial activity against Salmonella typhimurium 7731 after 18 to 24 hrs by CLSI-based broth microdilution method; assay type: functional, Salmonella enterica subsp. enterica serovar Typhimurium; settings: Salmonella enterica, time hrs 18-24
# [19] = Antibacterial activity against Salmonella pullorum 7913 after 18 to 24 hrs by CLSI-based broth microdilution method; assay type: functional, Salmonella enterica subsp. enterica serovar Pullorum; settings: Salmonella enterica, time hrs 18-24
# Salmonella enterica = assay: Antibacterial activity against Salmonella choleraesuis 503 after 18 to 24 hrs by CLSI-based broth microdilution method; assay type: functional; settings: time hrs 18-24
# [20] = system: Staphylococcus epidermidis; assay: Antibacterial activity against Staphylococcus epidermidis ATCC 12228 after 18 to 24 hrs by CLSI-based broth microdilution method; assay type: functional; settings: time hrs 18-24
# Enterococcus faecalis = assay: Antibacterial activity against Enterococcus faecalis ATCC 29212 after 18 to 24 hrs by CLSI-based broth microdilution method; assay type: functional; settings: time hrs 18-24
# Staphylococcus aureus [21] = assay: Antibacterial activity against methicillin-resistant Staphylococcus aureus 43300 after 18 to 24 hrs by CLSI-based broth microdilution method; assay type: functional; settings: time hrs 18-24
# Streptococcus agalactiae = assay: Antibacterial activity against Streptococcus agalactiae H92 after 18 to 24 hrs by CLSI-based broth microdilution method; assay type: functional; settings: time hrs 18-24
# Escherichia coli [22] = assay: Antibacterial activity against Escherichia coli ATCC 25922 after 18 to 24 hrs in presence of 150 mM Na+ by CLSI-based broth microdilution method; assay type: functional; settings: time hrs 18-24
# Erythrocyte = assay: Hemolytic activity in human RBC assessed as hemolysis; assay type: ADME, cell-based
# [23] = Hemolytic activity in human RBC assessed as hemolysis at 1 to 128 uM relative to control; assay type: ADME, cell-based, Erythrocyte; settings: human red blood cells (RBC), dose 1-128 µM, read-out: Activity
# [24] = Cytotoxicity against mouse RAW264.7 cells assessed as cell viability at 128 uM by MTT assay relative to control; assay type: cell-based; settings: read-out: Activity
# [25] = Cytotoxicity against HEK-293T cells assessed as cell viability at 128 uM by MTT assay relative to control; assay type: cell-based; settings: human, read-out: Activity
# Escherichia coli [26] = assay: Antibacterial activity against Escherichia coli ATCC 25922 after 18 to 24 hrs in presence of 4.5 mM K+ by CLSI-based broth microdilution method; assay type: functional; settings: time hrs 18-24
# Escherichia coli [27] = assay: Antibacterial activity against Escherichia coli ATCC 25922 after 18 to 24 hrs in presence of 1 mM Mg2+ by CLSI-based broth microdilution method; assay type: functional; settings: time hrs 18-24
# Escherichia coli [28] = assay: Antibacterial activity against Escherichia coli ATCC 25922 after 18 to 24 hrs in presence of 8 uM Zn2+ by CLSI-based broth microdilution method; assay type: functional; settings: time hrs 18-24
# Escherichia coli [29] = assay: Antibacterial activity against Escherichia coli ATCC 25922 after 18 to 24 hrs in presence of 6 uM NH4+ by CLSI-based broth microdilution method; assay type: functional; settings: time hrs 18-24
# Escherichia coli [30] = assay: Antibacterial activity against Escherichia coli ATCC 25922 after 18 to 24 hrs in presence of 6 uM Fe3+ by CLSI-based broth microdilution method; assay type: functional; settings: time hrs 18-24
# Escherichia coli [31] = assay: Antibacterial activity against Escherichia coli ATCC 25922 after 18 to 24 hrs in presence of 25% human serum by CLSI-based broth microdilution method; assay type: functional; settings: time hrs 18-24
# Escherichia coli [32] = assay: Antibacterial activity against Escherichia coli ATCC 25922 after 18 to 24 hrs in presence of 50% human serum by CLSI-based broth microdilution method; assay type: functional; settings: time hrs 18-24
# Escherichia coli [33] = assay: Antibacterial activity against Escherichia coli ATCC 25922 after 18 to 24 hrs in presence of 100% human serum by CLSI-based broth microdilution method; assay type: functional; settings: time hrs 18-24
# Staphylococcus aureus [34] = assay: Antibacterial activity against Staphylococcus aureus ATCC 29213 after 18 to 24 hrs in presence of 150 mM Na+ by CLSI-based broth microdilution method; assay type: functional; settings: time hrs 18-24
# Staphylococcus aureus [35] = assay: Antibacterial activity against Staphylococcus aureus ATCC 29213 after 18 to 24 hrs in presence of 4.5 mM K+ by CLSI-based broth microdilution method; assay type: functional; settings: time hrs 18-24
# Staphylococcus aureus [36] = assay: Antibacterial activity against Staphylococcus aureus ATCC 29213 after 18 to 24 hrs in presence of 1 mM Mg2+ by CLSI-based broth microdilution method; assay type: functional; settings: time hrs 18-24
# Staphylococcus aureus [37] = assay: Antibacterial activity against Staphylococcus aureus ATCC 29213 after 18 to 24 hrs in presence of 8 uM Zn2+ by CLSI-based broth microdilution method; assay type: functional; settings: time hrs 18-24
# Staphylococcus aureus [38] = assay: Antibacterial activity against Staphylococcus aureus ATCC 29213 after 18 to 24 hrs in presence of 6 uM NH4+ by CLSI-based broth microdilution method; assay type: functional; settings: time hrs 18-24
# Staphylococcus aureus [39] = assay: Antibacterial activity against Staphylococcus aureus ATCC 29213 after 18 to 24 hrs in presence of 6 uM Fe3+ by CLSI-based broth microdilution method; assay type: functional; settings: time hrs 18-24
# Staphylococcus aureus [40] = assay: Antibacterial activity against Staphylococcus aureus ATCC 29213 after 18 to 24 hrs in presence of 25% human serum by CLSI-based broth microdilution method; assay type: functional; settings: time hrs 18-24
# Staphylococcus aureus [41] = assay: Antibacterial activity against Staphylococcus aureus ATCC 29213 after 18 to 24 hrs in presence of 50% human serum by CLSI-based broth microdilution method; assay type: functional; settings: time hrs 18-24
# Staphylococcus aureus [42] = assay: Antibacterial activity against Staphylococcus aureus ATCC 29213 after 18 to 24 hrs in presence of 100% human serum by CLSI-based broth microdilution method; assay type: functional; settings: time hrs 18-24
# [43] = Stability of compound at 100 degreeC after 30 to 90 mins; assay type: physicochemical; settings: time 30-90 min
structure (smiles),measurement,setting,value
CC[C@H](C)[C@H](N)C(=O)N[C@@H](CS)C(=O)N[C@@H](CCCNC(=N)N)C(=O)N[C@@H](CCCCN)C(=O)N1CCC[C@H]1C(=O)N[C@H](C(=O)N[C@H](C(=O)N[C@@H](CS)C(=O)N[C@@H](CCCNC(=N)N)C(=O)N[C@@H](CCCCN)C(=O)N1CCC[C@H]1C(=O)N[C@H](C(=O)N[C@H](C(=O)N[C@@H](CS)C(=O)N[C@@H](CCCNC(=N)N)C(=O)N[C@@H](CCCCN)C(=O)N1CCC[C@H]1C(=O)N[C@H](C(=O)N[C@H](C(=O)N[C@@H](CS)C(=O)N[C@@H](CCCNC(=N)N)C(=O)N[C@@H](CCCCN)C(=O)N1CCC[C@H]1C(=O)N[C@H](C(N)=O)[C@@H](C)CC)[C@@H](C)CC)[C@@H](C)CC)[C@@H](C)CC)[C@@H](C)CC)[C@@H](C)CC)[C@@H](C)CC (H-ICRKPIICRKPIICRKPIICRKPI-NH2),selectivity ratio,[1],2
same,selectivity ratio,[2],2
same,selectivity ratio,[3],2
same,selectivity ratio,[4],2
same,selectivity ratio,[5],2
same,selectivity ratio,[6],2
same,selectivity ratio,[7],32
same,selectivity ratio,[8],32
same,selectivity ratio,[9],32
same,selectivity ratio,[10],32
same,selectivity ratio,[11],32
same,selectivity ratio,[12],32
same,MIC,Staphylococcus aureus [13],> 64 µM
same,MIC,Staphylococcus aureus [14],> 64 µM
same,MIC,Escherichia coli [15],2 µM
same,MIC,Escherichia coli [16],2 µM
same,MIC,Salmonella typhimurium [17],2 µM
same,MIC,Salmonella typhimurium [18],4 µM
same,MIC,[19],16 µM
same,MIC,Salmonella enterica,8 µM
same,MIC,[20],> 64 µM
same,MIC,Enterococcus faecalis,> 64 µM
same,MIC,Staphylococcus aureus [21],> 64 µM
same,MIC,Streptococcus agalactiae,> 64 µM
same,MIC,Escherichia coli [22],32 µM
same,MHC,Erythrocyte,> 128 µM
same,hemolysis at up to 128 µM,[23],< 5%
same,viability at 128 µM,[24],> 90%
same,viability at 128 µM,[25],> 90%
same,MIC,Escherichia coli [26],4 µM
same,MIC,Escherichia coli [27],8 µM
same,MIC,Escherichia coli [28],2 µM
same,MIC,Escherichia coli [29],2 µM
same,MIC,Escherichia coli [30],4 µM
same,MIC,Escherichia coli [31],4 µM
same,MIC,Escherichia coli [32],8 µM
same,MIC,Escherichia coli [33],16 µM
same,MIC,Staphylococcus aureus [34],> 64 µM
same,MIC,Staphylococcus aureus [35],> 64 µM
same,MIC,Staphylococcus aureus [36],> 64 µM
same,MIC,Staphylococcus aureus [37],> 64 µM
same,MIC,Staphylococcus aureus [38],> 64 µM
same,MIC,Staphylococcus aureus [39],> 64 µM
same,MIC,Staphylococcus aureus [40],> 64 µM
same,MIC,Staphylococcus aureus [41],> 64 µM
same,MIC,Staphylococcus aureus [42],> 64 µM
same,Stabilty,[43],Stable
